Data: article PMC5317004 (Scientific Reports, 2017)

Assays:
chimeric α7-GluClβR [1] = assay: IVM added after activation by ACh: kinetics and extent of current decline (whole-cell patch clamp); assay type: cell-based, chick nAChR α7 / C. elegans GluClβ
Protocol: Following a further wash (for a minute), the same cell was challenged again with a 5-μM-IVM solution (in 0.01% DMSO; red bar, arrow and trace). Recordings were performed at −60 mV. (B) Time constant of current decline (τd). Values of τd were determined by exponential fits to the declining phase of the currents using Eq. 3. […] Error bars correspond to SEM of N = 6 and N = 5 cells for recordings at −60 mV and −20 mV, respectively. Paired, two-tailed Student’s t-tests indicate that for not significant (“ns”) P > 0.3, and ** 0.001 < P < 0.005.
Figure 8 The inhibition of ACh-elicited currents by addition of IVM is irreversible. […] (B) Representative currents for the same experiment as in A, but with the exception of IVM (0.5 μM) addition after the ACh-elicited current reached to its peak (IP1). Inset, magnification of the indicated segment of the current trace. In both panels A and B, black bars above the current traces indicate ACh or IVM applications. […] Error bars correspond to SEM. Unpaired, two-tailed Student’s t-tests indicate *** P < 0.0001.
The declining phase of the currents was fitted with an exponential time course to give the time constant of current decline by using equation 3, […]
I is the current, IP is the peak of the current, IS is the steady state current, t is the time, and τ is the time constant of current decline. […]
Supplementary Materials and Methods
The structural mo del of the chi meric α7-GluClβR was built based on th e methodologies published previously1,2, and the sequence of the chimeric subunit is presented in […]
DNA construct and preparation of cells for electrophysiological experiments The cDNA encoding the α7-GluClβ chimeric subunit was generated as described previously3, and was cloned into a pcDNA3.1 vector.
Chinese hamster ovary cells (CHO-K1, ATCC via Biological Industries Israel, Beit Haemek Ltd.) were cultured as performed previously2 in Dulbecco 's Modified E agle Med iu m (DMEM) containing 10% fetal calf serum (Biological Industries Israel Beit Haemek Ltd.), 2 mM glutamax, 100 Units/ml penicillin G and 100 μg/ml streptomycin, and grown in 5% CO2 at 37°C under 90-95% hu midity . CHO cells were seeded on glass coverslips (13-mm diameter) placed in a 24-multiwell plate. For the expression of the α7-GluClβR, cells were transiently transfected with the pcDNA3.1 plasmid containing the receptor’s ORF (200-600 ng per well) using transit-LT1 transfection reagent (Mirus, USA), according to the manufacturer’s protocol. pIRES-CD8 plas mid (200 ng per well) was also added to enable visualization of the ex pressing cells by beads coated with anti-CD8 antibodies (Invitrogen). For the expression of GluClβ ho mo mers, we used the pcDNA3.1 plas mid containing the GluClβ-subunit ORF (600-1000 ng per well), pIRES-CD8 plas mid (200 ng per well) and th e X-tremeGENE HP DNA Transfection Reagent (Roche Life Science). Recordings were performed 48-72 hours following transfection.
Whole-cell patch clamp recordings
Recordings were performed in the aforementioned CHO cells, as previously described1,2. Whole-cell patch clamp experiments were performed with normal external solution (NES) contained (in millimolar): 140 NaCl, 2.8 KCl, 2 CaCl2, 2 MgCl2, 10 glucose and 10 HEPES, adjusted to pH 7.35 with NaOH (310 mOsM). The pipette solution contained […]
(in millimolar): 130 KCl, 4 MgCl2, 4 Na2ATP, 1 EGTA and 10 HEPES, adjusted to pH 7.35 with KOH (290 mOsM). The osmolarity of these solutions was maintained by adding sucrose.
The electrode resistance was 6-10 MΩ when filled with the pipette solution. External solutions were applied onto the cell by using the VC-77SP fast-step system (Warner Instruments, CT, USA) combined with N2 pressure of 3-4 psi to produce laminar flow of the external solution onto the patched cell. All measurements were performed at 25 °C. The currents w ere measured with an Axopatch 200B patch-clamp amplifier (Molecular Devices, Sunnyvale, CA) and a Digidata 1440A interface (Molecular Devices). […]

chimeric α7-GluClβR [2] = target: chimeric α7-GluClβR (Gallus gallus / Caenorhabditis elegans, UniProt P22770, M226I/T225I); assay: ACh dose-response, whole-cell patch clamp in CHO cells expressing the chimeric receptor; assay type: cell-based, chick nAChR α7 / C. elegans GluClβ; conditions: −60 mV
Chain of chimeric α7-GluClβR (Gallus gallus / Caenorhabditis elegans, UniProt P22770, M226I/T225I) (P22770 24-230 T225I/M226I): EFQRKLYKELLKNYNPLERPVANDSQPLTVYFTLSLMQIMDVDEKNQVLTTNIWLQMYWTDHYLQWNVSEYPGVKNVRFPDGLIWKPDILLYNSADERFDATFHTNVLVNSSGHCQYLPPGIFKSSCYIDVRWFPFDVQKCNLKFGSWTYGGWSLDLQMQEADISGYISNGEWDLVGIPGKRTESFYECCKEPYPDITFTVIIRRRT
Chain of chimeric α7-GluClβR (Gallus gallus / Caenorhabditis elegans, UniProt P22770, M226I/T225I) (Q17328 245-434, further chain): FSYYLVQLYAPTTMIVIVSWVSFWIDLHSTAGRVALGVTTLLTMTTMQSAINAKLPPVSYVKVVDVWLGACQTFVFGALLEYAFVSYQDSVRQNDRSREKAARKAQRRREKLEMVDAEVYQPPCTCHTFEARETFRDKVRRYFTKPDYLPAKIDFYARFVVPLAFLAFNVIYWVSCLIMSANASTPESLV

homomeric GluClβR [3] = system: T1, homomeric GluClβR; assay: Effect of IVM on Glu-elicited currents of homomeric GluClβ receptors in CHO cells (whole-cell patch clamp); assay type: cell-based, C. elegans; conditions: 100 mM Glu, four cells, mean ± SEM
T1 construct: homomeric receptors assembled from the full-length C. elegans GluClβ subunit; expressed in transfected cells; host or cells: CHO-K1 cells, transient transfection, pcDNA3.1
Protocol: Figure 9 Effect of IVM on homomeric GluClβ receptors. (A) Representative current traces obtained by the indicated application protocol. Glu (100 mM) was applied for either 350 ms to obtain peak IP0 at −60 mV, or 600 ms to obtain peaks IP1, IP2 and IP3 at +60 mV. Note that the responses at both membrane voltages, −60 and +60 mV, start to desensitize appreciably before the end of Glu application. IVM (2 μM) was applied for 10 seconds. Asterisk indicates a 25-sec-long wash between the second and third Glu applications. (B) Current-voltage (I/V) relations obtained in a different cell than in A upon the application of Glu (100 mM) over a voltage ramp lasting 200 ms. […] Current ratios were extracted from experiments performed as shown in (A). Mean ± SEM of four cells are presented. Paired, two-tailed Student’s t-tests indicate that **0.001 < P < 0.01 and ***P < 0.0002.
Supplementary Information
Trapping of ivermectin by a pentameric ligand-gated ion channel upon open-to-cl ose d i someri zati on N. Degani-Katzav, M. Klein, M. Har-Even, R. Gortler, R. Tobi and Y. Paas*
Supplementary Materials and Methods […]
The electrode resistance was 6-10 MΩ when filled with the pipette solution. […] The currents w ere measured with an Axopatch 200B patch-clamp amplifier (Molecular Devices, Sunnyvale, CA) and a Digidata 1440A interface (Molecular Devices). […]

homomeric GluClβR [4] = system: homomeric GluClβR; parameters: method as in PMID 7935817; conditions: Xenopus oocytes; read-out: Glu EC50; cited from earlier work

Structure (SMILES)	current remaining at end of initial application, percent IS/IP1 (chimeric α7-GluClβR [1]; 30 μM ACh alone for 9.6 sec, N = 10)	τd1, time constant of current decline (chimeric α7-GluClβR [1]; 30 μM ACh alone, 9.6 sec, N = 10)	current remaining at end of application, percent of the peak amplitude (chimeric α7-GluClβR [1]; 350 μM ACh alone for 5.5 sec, N = 5)	time between the start of application and the onset of effect (chimeric α7-GluClβR [1]; six experiments as in Fig. 5A, 350 μM ACh, 5 μM IVM)	Hill coefficient (ACh dose-response) (chimeric α7-GluClβR [2])	I+60mV/I−60mV of Glu-elicited responses (homomeric GluClβR [3])	EC50 (homomeric GluClβR [4])
CC(=O)OCC[N+](C)(C)C [ACh, acetylcholine]	35 ± 4%	4268 ± 224 ms	31 ± 8.6%	67 ± 7 milliseconds	2.55 ± 0.3		
N[C@@H](CCC(=O)O)C(=O)O [Glu, glutamate]						2.8 ± 0.2	380 µM
